Legend:
[1] = target: recombinant IRE1 protein (Homo sapiens, UniProt O75460); experiment: In vitro fluorescent splicing reporter assay with recombinant IRE1 protein; assay type: biochemical; conditions: doses of PIs ranging from 20 uM to 0.63 uM; fluorescence over time
[2] = tested on: IL-6; experiment: IL-6 production with Nelfinavir and synthetic TLR4 agonist MPLA; assay type: cell-based; conditions: Nelfinavir plus TLR4 agonist MPLA compared to TLR4 agonist alone
Excerpt: FIG. 1. HIV-protease inhibitors (PIs) trigger robust IRE1 and XBP1 activation and synergize with TLR4 activation to produce cytokines and co-stimulatory molecules. A) XBP1 mRNA maturation (XBP1s) in J774 cells stimulated with dose dependent concentrations of HIV-PIs (similar data were obtained in primary mouse M0s, and various M0 cell lines of human and mouse origin). B) Cell extracts of cells stimulated with Tunicamycin (TM) or HIV-protease inhibitors were monitored for IRE1 activation by phosphorylation in a Phos-tag SDS-PAGE gel, CHOP induction and ATF6a processing. C) Realtime PCR of CHOP induction by the ER-stress inducer TM and the HIV-PI Nelfinavir (NFR) was analyzed in PERK proficient and deficient MEFs. […]
XBP1 mRNA maturation (XBP1s) in J774 cells stimulated with dose dependent concentrations of HIV-PIs (similar data were obtained in primary mouse M0s, and various M0 cell lines of human and mouse origin) see FIG. 1, panel A. Cell extracts of cells stimulated with Tunicamycin (TM) or HIV-protease inhibitors were monitored for IRE1 activation by phosphorylation in a Phos-tag SDS-PAGE gel, CHOP induction and ATF6a processing, see FIG. 1, panel B. Realtime PCR of CHOP induction by the ER-stress inducer TM and the HIV-PI Nelfinavir (NFR) was analyzed in PERK proficient and deficient MEFs see FIG. 1, panel C.

[3] = tested on: CD86 and CD40; experiment: Co-stimulatory ligand (CD86 and CD40) expression with Nelfinavir and synthetic TLR4 agonist MPLA; assay type: cell-based; conditions: Nelfinavir plus TLR4 agonist MPLA compared to TLR4 agonist alone

recombinant IRE1 protein, sequence (O75460 19-977, species assumed): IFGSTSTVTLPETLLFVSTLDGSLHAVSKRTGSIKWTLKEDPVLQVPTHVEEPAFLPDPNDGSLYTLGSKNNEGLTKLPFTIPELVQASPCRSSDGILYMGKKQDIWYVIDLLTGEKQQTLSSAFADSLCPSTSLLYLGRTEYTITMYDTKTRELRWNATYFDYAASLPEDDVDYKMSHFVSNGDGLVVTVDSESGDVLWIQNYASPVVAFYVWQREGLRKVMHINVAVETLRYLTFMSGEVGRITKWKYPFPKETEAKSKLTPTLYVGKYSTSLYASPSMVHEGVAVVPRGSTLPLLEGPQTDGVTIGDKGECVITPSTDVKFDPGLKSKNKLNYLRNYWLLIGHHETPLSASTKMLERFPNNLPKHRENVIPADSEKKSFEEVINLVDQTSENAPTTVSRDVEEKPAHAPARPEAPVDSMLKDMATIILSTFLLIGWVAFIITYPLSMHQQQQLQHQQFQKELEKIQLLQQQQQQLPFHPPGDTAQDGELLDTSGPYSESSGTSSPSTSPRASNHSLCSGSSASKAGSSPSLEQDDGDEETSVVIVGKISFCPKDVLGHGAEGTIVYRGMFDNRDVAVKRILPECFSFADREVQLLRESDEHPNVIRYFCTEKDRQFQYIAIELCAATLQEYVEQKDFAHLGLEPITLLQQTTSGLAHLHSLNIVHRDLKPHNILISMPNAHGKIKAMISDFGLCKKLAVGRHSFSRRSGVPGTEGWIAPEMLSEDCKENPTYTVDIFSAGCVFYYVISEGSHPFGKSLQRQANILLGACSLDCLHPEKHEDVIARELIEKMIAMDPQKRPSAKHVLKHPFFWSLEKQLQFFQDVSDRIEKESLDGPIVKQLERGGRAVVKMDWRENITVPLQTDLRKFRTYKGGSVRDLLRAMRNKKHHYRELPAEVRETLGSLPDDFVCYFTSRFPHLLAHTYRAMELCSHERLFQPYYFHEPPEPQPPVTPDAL

SMILES	induction of xbp1 splicing [1]	IL-6 production [2]	CD40 expression [3]	CD86 expression [3]
Cc1c(O)cccc1C(=O)N[C@@H](CSc1ccccc1)[C@H](O)CN1C[C@H]2CCCC[C@H]2C[C@H]1C(=O)NC(C)(C)C [Nelfinavir]	marked induction	Increased	Increased	Increased
CC(C)CN(C[C@@H](O)[C@H](Cc1ccccc1)NC(=O)O[C@H]1CCOC1)S(=O)(=O)c1ccc(N)cc1 [amprenivir, amprenavir]	not	–	–	–
CC(C)c1nc(CN(C)C(=O)N[C@H](C(=O)N[C@@H](Cc2ccccc2)C[C@H](O)[C@H](Cc2ccccc2)NC(=O)OCc2cncs2)C(C)C)cs1 [ritonivir, ritonavir]	marked induction	–	–	–

— patent US9956236B2, “Methods for increasing immune responses using agents that directly bind to and activate IRE-1” (Cornell University, priority 2011, dated 2018)
